Legend:
[1] = test system: Tetranychus urticae; test: Tetranychus urticae - spray test, OP-resistant (bean leaf discs, 6 days); assay type: in vivo; settings: 500 g/ha, after 6 days
How it was run: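 Bean leaf discs carrying all stages of OP-resistant Tetranychus urticae were sprayed with compound formulated in acetone/DMF and diluted in water with 1000 ppm emulsifier. Mortality was scored after 6 days as % efficacy, where 100% means all mites were killed.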

[2] = test system: Phaedon cochleariae; test: Phaedon cochleariae - spray test; assay type: in vivo; settings: 500 g/ha, Chinese cabbage leaf discs, after 7 days
Method: 4. Phaedon cochleariae—Spray Test
Solvent: 78.0 parts by weight of acetone
• 1.5 parts by weight of dimethylformamide Emulsifier: alkylaryl polyglycol ether
(§1) To produce a suitable preparation of active compound, 1 part by weight of active compound is dissolved using the stated parts by weight of solvent and made up with water containing an emulsifier concentration of 1000 ppm until the desired concentration is attained. To produce further test concentrations, the preparation is diluted with emulsifier-containing water.
After 7 days, the efficacy in % is determined. 100% means that all the beetle larvae have been killed; 0% means that no beetle larvae have been killed.

[3] = log P determination by HPLC on reversed-phase columns (C 18), analogous to OECD Guideline 117; assay type: physicochemical; settings: for logP[a]: method [a]; for logP[b]: method [b]
How it was run: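 Reversed-phase C18 HPLC per OECD 117, two conditions: [a] pH 2.7, 0.1% formic acid water/acetonitrile, log P(HCOOH); [b] pH 7.8, 0.001 M ammonium hydrogencarbonate/acetonitrile, log P(neutral). Both use a 10–95% acetonitrile gradient; values are interpolated from retention times against C3–C16 unbranched alkan-2-ones.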

[4] = test system: Meloidogyne incognita; test: Meloidogyne incognita - test; assay type: in vivo; settings: 20 ppm, lettuce, after 14 days
Method: 2. Meloidogyne incognita—Test Solvent: 125.0 parts by weight of acetone To produce a suitable preparation of active compound, 1 part by weight of active compound is mixed with the stated amount of solvent and the concentrate is diluted with water to the desired concentration. Vessels are filled with sand, active compound solution, an egg/larvae suspension of the southern root-knot nematode (Meloidogyne incognita) and lettuce seeds. The lettuce seeds germinate and the plants develop. The galls develop on the roots. After 14 days, the nematicidal efficacy in % is determined by the formation of galls. 100% means that no galls were found; 0% means that the number of galls on the treated plants corresponds to the untreated control.

[5] = test system: Boophilus microplus; test: Boophilus microplus - injection test; assay type: in vivo; settings: 20 μg/animal, injection into engorged adult female cattle ticks, assessed after 7 days
Method: 1. Boophilus microplus—Injection Test
Solvent: dimethyl sulphoxide
To produce a suitable preparation of active compound, 10 mg of active compound are mixed with 0.5 ml of solvent and the concentrate is diluted with solvent to the desired concentration.
1 μl of the active compound solution is injected into the abdomen of 5 engorged adult female cattle ticks (Boophilus microplus). The animals are transferred into dishes and kept in a climate-controlled room.
Efficacy is assessed after 7 days by laying of fertile eggs. Eggs which are not visibly fertile are stored in a climate-controlled cabinet until the larvae hatch after about 42 days. An efficacy of 100% means that none of the ticks has laid any fertile eggs; 0% means that all the eggs are fertile.

[6] = test system: Tetranychus urticae; test: Tetranychus urticae - spray test, OP-resistant (bean plants, 7 days); assay type: in vivo; settings: 20 ppm, after 7 days
Method: 6. Tetranychus urticae—Spray Test, OP-Resistant
Solvent: 7 parts by weight of dimethylformamide
Emulsifier: alkylaryl polyglycol ether
as §1, with “water. If the addition of ammonium salts or/and penetrants is required, these are each added in a concentration of 1000 ppm to the formulation solution.” for “water.”
Bean plants (Phaseolus vulgaris) heavily infested by all stages of the greenhouse red spider mite (Tetranychus urticae) are treated by spraying with the active compound preparation of the desired concentration.
After 7 days, the efficacy in % is determined. 100% means that all the spider mites have been killed; 0% means that no spider mites have been killed.

[7] = test system: Myzus persicae; test: Myzus persicae - spray test; assay type: in vivo; settings: 500 g/ha, Chinese cabbage leaf discs, after 6 days
Method: 3. Myzus persicae—Spray Test Solvent: 78 parts by weight of acetone • • 1.5 parts by weight of dimethylformamide Emulsifier: alkylaryl polyglycol ether To produce a suitable preparation of active compound, 1 part by weight of active compound is dissolved using the stated parts by weight of solvent and made up with water containing an emulsifier concentration of 1000 ppm until the desired concentration is attained. To produce further test concentrations, the preparation is diluted with emulsifier-containing water. Discs of Chinese cabbage leaves (Brassica pekinensis) infested by all stages of the green peach aphid (Myzus persicae) are sprayed with an active compound preparation of the desired concentration. After 6 days, the efficacy in % is determined. 100% means that all the aphids have been killed; 0% means that no aphids have been killed.

| SMILES | efficacy (spider mites killed) [1] [%] | efficacy (beetle larvae killed) [2] [%] | logP[a] [3] | logP[b] [3] | nematicidal efficacy (formation of galls) [4] [%] | efficacy (laying of fertile eggs) [5] [%] | efficacy (spider mites killed) [6] [%] | efficacy (aphids killed) [7] [%] |
| --- | --- | --- | --- | --- | --- | --- | --- | --- |
| Cc1cc(Cl)c(N2C(=O)CN(C(=O)Nc3cccc(CC(F)(F)F)c3)C2=O)cc1[S+]([O-])CC(F)(F)F (racemic) [compound 71] | 100 | 100 | 3.68 | 3.64 | 90 |  |  |  |
| Cc1cc(Cl)c(N2C(=O)CN(C(=O)Nc3cccc(Cl)c3)C2=O)cc1[S+]([O-])CC(F)(F)F (racemic) [compound 72] | 100 | 100 | 3.55 | 3.50 | 90 | 100 |  |  |
| Cc1cc(F)c(N2C(=O)C(C)N(C(=O)NCC(F)(F)F)C2=O)cc1SCC(F)(F)F (racemic) [compound 79] | 100 | 100 | 3.55 | 3.56 |  | 100 |  |  |
| Cc1cc(F)c(N2C(=O)CN(C(=O)NCC(F)(F)F)C2=O)cc1[S+]([O-])CC(F)(F)F (single isomer, unassigned) [Ex. No. 136] |  |  | 2.4 | 2.43 |  |  | 100 |  |
| Cc1cc(F)c(N2C(=O)CN(C(=O)Nc3ccc(F)cc3)C2=O)cc1SCC(F)(F)F [compound 39] | 100 | 100 | 3.85 | 3.75 |  |  |  |  |
| Cc1cc(F)c(N2C(=O)CN(C(=O)Nc3cccc(CC(F)(F)F)c3)C2=O)cc1[S+]([O-])CC(F)(F)F (stereo not drawn) [compound 43] | 100 | 83 | 3.45 | 3.41 | 100 | 100 |  |  |
| CCC(C)NC(=O)N1CC(=O)N(c2cc(SCC(F)(F)F)c(C)cc2F)C1=O (stereo not drawn) [compound 44] | 100 | 100 | 3.64 | 3.58 |  |  |  |  |
| Cc1cc(F)c(N2C(=O)CN(C(=O)Nc3cccc(F)c3)C2=O)cc1[S+]([O-])CC(F)(F)F (stereo not drawn) [compound 46] | 100 |  | 3.02 | 2.97 |  | 100 |  | 90 |
| Cc1cc(F)c(N2C(=O)CN(C(=O)Nc3cccc(Cl)c3)C2=O)cc1[S+]([O-])CC(F)(F)F (stereo not drawn) [compound 48] | 100 | 83 | 3.31 | 3.25 | 90 | 100 |  |  |
| Cc1cc(Cl)c(N2C(=O)CN(C(=O)NCC(F)(F)F)C2=O)cc1SCC(F)(F)F [compound 53] | 100 | 83 | 3.51 | 3.40 |  |  |  |  |
| Cc1cc(F)c(N2C(=O)CN(C(=O)NC(C)(C)C)C2=O)cc1SCC(F)(F)F [compound 54] | 100 | 100 | 3.84 | 3.71 | 100 | 100 |  |  |
| CCC(C)(C)NC(=O)N1CC(=O)N(c2cc(SCC(F)(F)F)c(C)cc2F)C1=O [compound 101] | 100 | 83 | 4.09 | 3.96 | 90 |  |  |  |
| O=C(NCC(F)(F)F)N1CC(=O)N(c2cc(SCC(F)(F)F)c(Cl)cc2Cl)C1=O [compound 106] | 100 | 83 | 3.5 | 3.53 |  |  |  |  |

— patent publication US10206398B2, “Five-membered C-N-attached aryl sulphide and aryl sulphoxide derivatives as pesticides” (BAYER CROPSCIENCE AKTIENGESELLSCHAFT, priority 2014, dated 2019)
